Key:
GTPase KRas [1] = target: T1, GTPase KRas (Homo sapiens, UniProt P01116, G12D); assay: Inhibition of KRAS G12D mutant (unknown origin) assessed as inhibition of SOS1 mediated nucleotide exchange of bodipy-GDP for GppNHp incubated for 4 hrs by fluorescence based analysis
GTPase KRas [2] = target: GTPase KRas (Homo sapiens, UniProt P01116, G12V); assay: Inhibition of KRAS G12V mutant (unknown origin) assessed as inhibition of SOS1 mediated nucleotide exchange of bodipy-GDP for GppNHp incubated for 3 hrs by fluorescence based analysis
GTPase KRas [3] = target: T1, GTPase KRas; assay: Inhibition of KRAS G12D mutant in human HPAF-II cells assessed as reduction in ERK phosphorylation by Western blot analysis; format: cell-based

T1 sequence (P01116 whole entry G12D): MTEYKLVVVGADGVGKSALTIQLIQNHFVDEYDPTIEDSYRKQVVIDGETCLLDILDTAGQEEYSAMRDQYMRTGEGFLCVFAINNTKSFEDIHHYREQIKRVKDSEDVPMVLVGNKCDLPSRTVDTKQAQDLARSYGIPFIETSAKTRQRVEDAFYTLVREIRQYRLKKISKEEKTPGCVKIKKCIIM
Sequence of GTPase KRas (Homo sapiens, UniProt P01116, G12V) (P01116 whole entry G12V): as the sequence (P01116 whole entry G12D) above, with D12V counted along it

Compound	IC50 (GTPase KRas [1]) [nM]	IC50 (GTPase KRas [2]) [nM]	IC50 (GTPase KRas [3]) [nM]
C[C@H](Oc1nc2c(F)c(-c3cccc4ccc(F)cc34)c(CCC#N)cc2c2c1NC(=O)CN2C1C2CNC1C2)[C@@H]1CCCN1C (some centres not stated)	≤ 100	≤ 100	≤ 100
C[C@H](Oc1nc2c(F)c(-c3cccc(Cl)c3Cl)c(CCC#N)cc2c2c1c(=O)c(N1CCCC1=O)cn2[C@@H]1[C@@H]2CN[C@H]1C2)[C@H]1CCCN1C	≤ 100	≤ 100	–
C[C@H](Oc1nc2c(F)c(-c3cc(O)cc4ccc(F)cc34)c(CCC#N)cc2c2c1NC(=O)CN2C1C2CNC1C2)[C@@H]1CCCN1C (some centres not stated)	≤ 100	≤ 100	≤ 100
C[C@H](Oc1nc2c(F)c(-c3c[nH]c4ccccc34)c(CCC#N)cc2c2c1NC(=O)CN2C1C2CNC1C2)[C@@H]1CCCN1C (some centres not stated)	≤ 100	≤ 100	≤ 100
Cc1cc2c(nc(O[C@@H](C)[C@H]3CCCN3C)c3c(=O)ccn([C@@H]4[C@@H]5CN[C@H]4C5)c32)c(F)c1-c1cccc2c1C(C#N)CCC2 (some centres not stated)	≤ 100	≤ 100	≤ 100
C[C@@H](Oc1nc2c(F)c(-c3cc(O)cc4ccccc34)c(CCC#N)cc2c2c1CCCN2C1C2CNC1C2)[C@H]1CCCN1C (some centres not stated)	≤ 100	≤ 100	≤ 100

From ChEMBL document CHEMBL5365512, “Hetero-tricyclic Compounds as KRAS Inhibitors for Treating Cancer” (ACS Med Chem Lett, 2023)
